Assays:
Assay in all cases: CTG-3D luminescence at 96 h relative to day-0 seeding control (ratio to day 0); higher = more growth / less cytotoxicity; PDxO 3D drug screen (set 2), 96 h, CTG-3D normalised to day-0 seeding control.
HCI-016 = test system: HCI-016 (organoid from a triple-negative breast cancer xenograft)
HCI-011.E2 = test system: HCI-011.E2 (organoid from an ER-positive breast cancer xenograft)
HCI-002 = test system: HCI-002 (organoid from a triple-negative breast cancer xenograft)
HCI-005.E2 = test system: HCI-005.E2 (organoid from a breast cancer xenograft with a HER2-positive history)
HCI-024 = test system: HCI-024 (organoid from a breast cancer xenograft)
HCI-003.E2 = test system: HCI-003.E2 (organoid from an ER-positive breast cancer xenograft)

Nc1cc(C(F)(F)F)c(-c2cc(N3CCOCC3)nc(N3CCOCC3)n2)cn1 [buparlisib]
CTG-3D luminescence at 96 h
Conditions	12.5 pM	0.00025 µM	0.005 µM	0.1 µM	1 µM	10 µM	100 µM	625 fM
HCI-002, days in culture: 127	2.59	2.87	2.94	3.16	2.14	0.496	0.461	2.98
HCI-002, days in culture: 155	5.8	5.75	6.05	5.13	3.11	0.466	0.411	4.41
HCI-002, days in culture: 168	3.25	3.53	3.92	2.96	2.25	0.309	0.241	4.04
HCI-011.E2, days in culture: 74	2.23	1.9	1.83	2.23	0.711	0.135	0.0559	2.32
HCI-016, days in culture: 305	2.89	2.88	2.23	4.87	1.89	0.444	0.606	5.12
HCI-016, days in culture: 327	1.19	1.21	1.32	2.02	1.16	0.497	0.431	1.23
HCI-016, days in culture: 341	2.17	1.78	2.04	2.44	1.48	0.65	0.484	2.59
HCI-016, days in culture: 397	1.77	2.39	1.33	2.74	1.41	0.71	0.511	2.25
HCI-024, days in culture: 202	0.94	1.8	0.863	1.75	0.649	0.995	0.453	1.69
HCI-024, days in culture: 231	0.962	1.28	0.905	1.7	0.751	0.659	0.357	1.23
HCI-024, days in culture: 254	1.89	0.93	0.779	1.12	1.08	0.637	0.959	2.39

CTG-3D luminescence at 96 h
Conditions	12.5 pM	0.00025 µM	0.005 µM	0.1 µM	1 µM	10 µM	100 µM	625 fM
HCI-003.E2	2.55	2.29	2.6	2.53	0.705	0.037	0.0142	2.71
HCI-005.E2	1.84	2.58	2.64	3.03	1.45	0.703	0.594	2.11
HCI-011.E2	1.59	1.75	1.23	1.38	0.772	0.191	0.0881	2.09

CCOc1ccn(-c2ccc(F)cc2)c(=O)c1C(=O)Nc1ccc(Oc2ccnc(N)c2Cl)c(F)c1 [ASLAN002]
CTG-3D luminescence at 96 h
Conditions	12.5 pM	0.00025 µM	0.005 µM	0.1 µM	1 µM	10 µM	100 µM	625 fM
HCI-002, days in culture: 127	2.57	3.09	2.93	3.28	2.8	2.96	1.67	2.9
HCI-002, days in culture: 155	4.58	5.63	6.16	6.6	5.32	3.84	1.94	4.85
HCI-002, days in culture: 168	3.23	3.24	4.54	3.38	4.12	2.92	0.58	3.92
HCI-011.E2, days in culture: 74	2.83	2.42	2.58	2.8	2.58	2.52	1.66	2.28
HCI-016, days in culture: 305	1.62	3.6	3.65	4.35	2.71	1.97	2.68	3.43
HCI-016, days in culture: 327	0.8	1.78	1.32	1.46	1.87	1.58	1.05	1.72
HCI-016, days in culture: 341	1.97	1.78	2.09	2.6	1.97	2	0.676	2.26
HCI-016, days in culture: 397	1.73	2.37	1.99	2.59	2.39	2.98	0.779	2.52
HCI-024, days in culture: 202	1.14	1.03	1.19	1.27	0.701	1.41	0.658	1.61
HCI-024, days in culture: 231	0.919	1.2	1.13	1.05	1.25	1.02	0.471	1.06
HCI-024, days in culture: 254	2.48	0.889	0.968	1.46	1.85	1.96	1	2.45

CTG-3D luminescence at 96 h
Conditions	12.5 pM	0.00025 µM	0.005 µM	0.1 µM	1 µM	10 µM	100 µM	625 fM
HCI-003.E2	2.68	2.58	2.76	2.78	2.47	1.97	1.09	2.78
HCI-005.E2	1.72	2.16	2.37	2.74	2.59	2.35	1.45	2.25
HCI-011.E2	1.61	1.78	1.28	1.76	1.41	2.11	1.39	2.23

CC(=O)O[C@@]12CO[C@@H]1C[C@H](O)[C@@]1(C)C(=O)[C@H](O)C3=C(C)[C@@H](OC(=O)[C@H](O)[C@@H](NC(=O)OC(C)(C)C)c4ccccc4)C[C@@](O)([C@@H](OC(=O)c4ccccc4)[C@H]21)C3(C)C [docetaxel]
CTG-3D luminescence at 96 h
Conditions	12.5 pM	0.00025 µM	0.005 µM	0.1 µM	1 µM	10 µM	100 µM	625 fM
HCI-002, days in culture: 127	0.447	0.957	0.452	0.428	0.356	0.422	0.298	0.543
HCI-002, days in culture: 155	1.9	0.578	0.357	0.536	0.394	0.397	0.378	2.27
HCI-002, days in culture: 168	3.45	3.13	0.43	0.281	0.324	0.319	0.115	4.39
HCI-011.E2, days in culture: 74	2.53	2.12	1.78	1.48	1.09	0.702	0.133	2.19
HCI-016, days in culture: 305	1.51	1.9	1.03	1.42	0.985	0.955	0.0636	1.77
HCI-016, days in culture: 327	0.628	0.252	0.393	0.838	0.432	0.497	0.0762	0.906
HCI-016, days in culture: 341	1.18	1.18	0.786	0.962	0.862	0.954	0.11	1.59
HCI-016, days in culture: 397	1.74	1.18	0.667	0.792	0.484	0.997	0.19	2.27
HCI-024, days in culture: 202	0.822	0.868	0.82	1.17	0.844	1.08	0.0987	0.654
HCI-024, days in culture: 231	0.86	0.987	0.75	0.873	1.08	1.06	0.0745	1.06
HCI-024, days in culture: 254	0.926	1.02	1.14	1.11	1.87	0.726	0.241	1.59

CTG-3D luminescence at 96 h
Conditions	12.5 pM	0.00025 µM	0.005 µM	0.1 µM	1 µM	10 µM	100 µM	625 fM
HCI-003.E2	0.748	0.702	0.684	0.627	0.599	0.261	0.0093	0.993
HCI-005.E2	1.75	1.98	2.07	2.26	2.22	1.75	0.813	2.5
HCI-011.E2	1.19	1.26	1.02	1.32	1.05	0.933	0.118	1.35

CC(=O)c1c(C)c2cnc(Nc3ccc(N4CCNCC4)cn3)nc2n(C2CCCC2)c1=O [palbociclib]
CTG-3D luminescence at 96 h
Conditions	12.5 pM	0.00025 µM	0.005 µM	0.1 µM	1 µM	10 µM	100 µM	625 fM
HCI-002, days in culture: 127	2.7	3.03	2.72	3.1	2.26	2.38	2.33	2.77
HCI-002, days in culture: 155	4.87	4.92	5.53	4.73	3.5	3.42	2.36	5.36
HCI-002, days in culture: 168	3.15	3.17	3.77	2.95	3.02	2.23	1.63	4.09
HCI-011.E2, days in culture: 74	2.34	2.11	2.43	2.43	1.74	2.51	1.52	2.09
HCI-016, days in culture: 305	2.74	2.8	2.81	3.01	2.9	1.83	2.12	3.73
HCI-016, days in culture: 327	0.926	1.04	1.84	1.67	1.15	1.59	0.478	1.3
HCI-016, days in culture: 341	2.28	1.75	1.74	2.25	1.67	1.9	0.71	2.48
HCI-016, days in culture: 397	2	2.56	1.48	2.7	2.38	1.99	0.831	2.9
HCI-024, days in culture: 202	0.831	0.703	1.17	1.26	1.7	1.1	0.337	1.22
HCI-024, days in culture: 231	0.919	0.896	1.34	0.956	1.09	0.74	0.498	1.21
HCI-024, days in culture: 254	1.24	1.36	0.864	0.919	1.17	1.25	0.688	2.68

CTG-3D luminescence at 96 h
Conditions	12.5 pM	0.00025 µM	0.005 µM	0.1 µM	1 µM	10 µM	100 µM	625 fM
HCI-003.E2	2.52	2.44	2.53	2.82	2.21	1.92	0.594	2.88
HCI-005.E2	1.84	2.56	2.41	3.06	2.51	2.16	0.934	2.38
HCI-011.E2	1.41	1.8	1.29	1.53	1.49	1.92	1.44	1.86

Cc1c(CN2CCN(C(=O)[C@H](C)O)CC2)sc2c(N3CCOCC3)nc(-c3cnc(N)nc3)nc12 [apitolisib]
CTG-3D luminescence at 96 h
Conditions	12.5 pM	0.00025 µM	0.005 µM	0.1 µM	1 µM	10 µM	100 µM	625 fM
HCI-002, days in culture: 127	2.45	2.82	2.96	2.58	1.05	0.803	0.805	2.74
HCI-002, days in culture: 155	5.36	5.25	5.97	4.01	1.36	0.808	0.848	4.72
HCI-002, days in culture: 168	3.42	3.42	4.23	2.67	1.16	0.818	0.75	3.69
HCI-011.E2, days in culture: 74	2.37	2.08	1.85	1.24	0.177	0.0892	0.218	2.23
HCI-016, days in culture: 305	2.28	2.68	3.05	3.53	0.981	0.764	0.885	4.57
HCI-016, days in culture: 327	1.06	1.19	1.2	1.18	0.573	0.82	0.546	1.62
HCI-016, days in culture: 341	2.23	1.71	1.7	1.65	0.831	0.768	0.618	2.56
HCI-016, days in culture: 397	1.26	1.89	1.41	1.48	0.778	0.916	0.378	1.87
HCI-024, days in culture: 202	1.67	1.17	1	1.17	0.494	1.03	0.293	1.42
HCI-024, days in culture: 231	1.04	1.28	1.23	1.04	0.577	0.527	0.227	1.38
HCI-024, days in culture: 254	1.36	0.995	0.856	2.4	0.795	0.608	0.25	1.94

CTG-3D luminescence at 96 h
Conditions	12.5 pM	0.00025 µM	0.005 µM	0.1 µM	1 µM	10 µM	100 µM	625 fM
HCI-003.E2	2.46	2.27	2.31	1.31	0.0639	0.0361	0.0424	2.82
HCI-005.E2	1.87	2.22	2.35	1.75	0.429	0.481	0.444	2.21
HCI-011.E2	1.62	1.71	1.3004	0.978	0.232	0.17	0.377	1.89

Reference: the supplement of paper PMC8882468
